Measured values from US7420090B2 (priority 2002, dated 2008).

Tested on: Pyrenophora teres
Format: in vivo
Details: 200 ppm

CCC(Oc1cc(Cl)cc(Cl)c1)C(=O)NC(C)(C)C#CCCCOC (stereo not shown) [4(57), 2-(3,5-dichlorophenoxy)-N-(1-methoxy-6-methylhept-4-yn-6-yl) butyramide]
control of fungal infection (preventive fungicidal activity): more than 60%
